Experimental data: patent US10647665B2, “Biaryl urea derivative or salt thereof and preparation process and use for the same” (Fudan University, priority 2016, dated 2020)

Key:
[1] = test system: Mouse Th17 cell differentiation; assay: Inhibition of mouse Th17 cell differentiation (IL-17 by intracellular staining and flow cytometry); type: cell-based; conditions: compound at 0.3 μM, mouse spleen CD4+ T cells, 96 hours
Procedure: Experimental method: Mouse spleen CD4^+ T cells were isolated and differentiated into Th17 cells. CD4^+ T cells were cultured in the environment of anti-CD3 (0.25 μg/mL), anti-CD28 (1 μg/mL), anti-IL4 (2 μg/mL), anti-IFN-γ (2 μg/mL), TGF-β (5 ng/mL), and IL6 (20 ng/mL), and then the test compound was added. After 96 hours, the differentiation efficiency of Th17 was analyzed. Before collection of cells, PMA at 50 ng/mL and ionomycin at 500 ng/mL were added for stimulation for 4 hours, and the ratio of IL-17 was detected by intracellular staining and flow cytometry. At the same time, we used Live/Dead Cell Dye (Invitrogen) staining method to analyze the cell survival rate, to judge whether the drug had toxicity to cells, and determine the inhibition rate of the compound at a concentration of 0.3 μM on IL-17 differentiation by Th 17 cells.

[2] = molecular target: RORγ receptor (B-RORγ LBD) (Homo sapiens (Human), UniProt P51449); assay: Inhibitory activity on RORγ receptor in vitro by fluorescence resonance energy transfer (FRET); type: biochemical; conditions: average of at least two independent tests
Procedure: The inhibitory activity of compounds on RORγ receptor was determined by fluorescence resonance energy transfer (FRET) experiments. The inhibitory activity was expressed by half-inhibitory concentration (IC50).
1. Preparation of RORγ Buffer Solution
10 mL of DTT and 100 mL buffer solution were gently mixed together and ready to use.
2. Preparation of Compound Solution
(§1) 3. Preparation of Protein Mixture a. 40 nM B-RORγ LBD solution and 20 nM SA-APC solution were gently mixed together. The reaction mixture was incubated for 15 minutes at room temperature. Then 400 nM Biotin was added to the described above mixture. After gently mixed together, the resulting mixture was incubated for 10 minutes at room temperature. […]
as §1, with “b.” for “3. Preparation of Protein Mixture a.”, “Bioin-SRC1” for “B-RORγ LBD”, “10” for “20”, “SA-eu” for “SA-APC”, “together, and the” for “together. The”, “200” for “400”
d. A mixture of 0.1 μM alternative agonist
N-(2-chloro-6-fluorophenyl)-N-((20-methoxy-[1,10-biphenylyl]-4-substituted)methyl)benzenesulfonamide, 25 μL B-RORγ LBD/SA-APC and Bioin-SRC1/SA-eu mixture solution with test compound were added to one of the well of a 384-well plate, then they were centrifuged for 1 minute at 1000 rpm, and incubated at room temperature for 1 hour. The values were read on the Envision microplate detector and IC50 was calculated.

Sequence of RORγ receptor (B-RORγ LBD) (P51449 269-508): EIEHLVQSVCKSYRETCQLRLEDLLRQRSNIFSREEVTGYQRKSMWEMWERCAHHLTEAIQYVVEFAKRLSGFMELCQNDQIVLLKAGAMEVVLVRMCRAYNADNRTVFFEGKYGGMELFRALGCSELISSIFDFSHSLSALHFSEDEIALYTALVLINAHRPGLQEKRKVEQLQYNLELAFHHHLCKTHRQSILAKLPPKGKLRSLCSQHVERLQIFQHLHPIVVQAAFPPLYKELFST

| Compound | IC50 [2] | inhibition at 0.3 µM [1] |
| --- | --- | --- |
| O=C(O)Cc1ccc(CNC(=O)Nc2cc(F)c(-c3ccccc3OC(F)(F)F)c(F)c2)cc1 [Example 1-19, 2-(4-((3-(2,6-difluoro-2′-(trifluoromethoxy)-[1,1′-biphenyl]-4-yl)ureido)methyl)phenyl)acetic acid] | 500 to 5000 nM | 0 to 40% |
| Cn1cc(-c2cccc(OC(F)(F)F)c2-c2ccc(NC(=O)NCc3ccc(CC(=O)O)cc3)cc2)cn1 [Example 1-22b, 2-(4-((3-(2′-(1-methyl-1H-pyrazol-4-yl)-6′-(trifluoromethoxy)-[1,1′-biphenyl]-4-yl)ureido)methyl)phenyl)acetic acid] | 500 to 5000 nM | 0 to 40% |
| O=C(O)CCc1ccc(CNC(=O)Nc2cc(Cl)c(-c3ccccc3OC(F)(F)F)c(Cl)c2)cc1 [Example 1-36, 3-(4-((3-(2,6-dichloro-2′-(trifluoromethoxy)-[1,1′-biphenyl]-4-yl)ureido)methyl)phenyl)propanoic acid] | 500 to 5000 nM |  |
| O=C(NCc1ccc(C(=O)O)cc1)Nc1cc(Cl)c(-c2ccccc2OC(F)(F)F)c(Cl)c1 [Example 1-14, 4-((3-(2,6-dichloro-2′-(trifluoromethoxy)-[1,1′-biphenyl]-4-yl)ureido)methyl)benzoic acid] | 500 to 5000 nM | 0 to 40% |
| O=C(O)Cc1ccc(CNC(=O)Nc2ccc(-c3ccccc3)cc2)cc1 [Example 1-23, 2-(4-((3-([1,1′-biphenyl]-4-yl)ureido)methyl)phenyl)acetic acid] | 5000 to 50000 nM | 0 to 40% |
| O=C(O)Cc1ccc(CNC(=O)Nc2cc(Cl)c(-c3ccccc3OC(F)(F)F)c(Cl)c2)cc1 [Example 1-15, 2-(4-((3-(2,6-dichloro-2′-(trifluoromethoxy)-[1,1′-biphenyl]-4-yl)ureido)methyl)phenyl)acetic acid] |  | 70 to 100% |
| CCS(=O)(=O)c1ccc(CNC(=O)Nc2ccc(-c3ccccc3)cc2)cc1 [Example 1-2, 1-([1,1′-biphenyl]-4-yl)-3-(4-(ethylsulfonyl)benzyl)urea] | 5000 to 50000 nM | 0 to 40% |
| O=C(O)Cc1ccc(CNC(=O)Nc2ccc(-c3ccccc3OC(F)(F)F)c(Cl)c2)cc1 [Example 1-18, 2-(4-((3-(2-chloro-2′-(trifluoromethoxv)-[1,1′-biphenyl]-4-yl)ureido)methyl)phenyl)acetic acid] | 500 to 5000 nM | 0 to 40% |
| CN(C(=O)NCc1ccc(CC(=O)O)cc1)c1cc(Cl)c(-c2ccccc2OC(F)(F)F)c(Cl)c1 [Example 1-27, 2-(4-((3-(2,6-dichloro-2′-(trifluoromethoxy)-[1,1′-biphenyl]-4-yl)-3-methylureido)methyl)phenyl)acetic acid] | 500 to 5000 nM |  |
| Cn1cc(-c2cc(NC(=O)NCc3ccc(CC(=O)O)cc3)ccc2-c2ccccc2OC(F)(F)F)cn1 [Example 1-22a, 2-(4-((3-(2-(1-methyl-1H-pyrazol-4-yl)-2′-(trifluoromethoxy)-[1,1′-biphenyl]-4-yl)ureido)methyl)phenyl)acetic acid] | 500 to 5000 nM | 0 to 40% |
| Cc1cc(CNC(=O)Nc2cc(Cl)c(-c3ccccc3OC(F)(F)F)c(Cl)c2)ccc1CC(=O)O [Example 1-31, 3-(4-((3-(2,6-dichloro-2′-(trifluoromethoxy)-[1,1′-biphenyl]-4-yl)ureido)methyl)-2-methylphenyl)acetic acid] | 500 to 5000 nM |  |
| CCS(=O)(=O)c1ccc(CNC(=O)Nc2cc(Cl)c(-c3ccccc3OC(F)(F)F)c(Cl)c2)cc1 [Example I-1, 1-(2,6-dichloro-2′-(trifluoromethoxy)-[1,1′-biphenyl]-4-yl)-3-(4-(ethylsulfonyl)benzyl)urea] |  | 70 to 100% |
| CN(Cc1ccc(CC(=O)O)cc1)C(=O)Nc1cc(Cl)c(-c2ccccc2OC(F)(F)F)c(Cl)c1 [Example 1-28, 2-(4-((3-(2,6-dichloro-2′-(trifluoromethoxy)-[1,1′-biphenyl]-4-yl)-1-methylureido)methyl)phenyl)acetic acid] | 500 to 5000 nM |  |
| CNS(=O)(=O)c1ccc(CNC(=O)Nc2cc(Cl)c(-c3ccccc3OC(F)(F)F)c(Cl)c2)nc1 [Example 1-13, 6-((3-(2,6-dichloro-2′-(trifluoromethoxy)-[1,1′-biphenyl]-4-yl)ureido)methyl)-N-methylpyridine-3-sulfonamide] | < 500 nM |  |
| CC(C(=O)O)c1ccc(CNC(=O)Nc2cc(Cl)c(-c3ccccc3OC(F)(F)F)c(Cl)c2)nc1 (stereo not shown) [Example 1-30, 2-(6-((3-(2,6-dichloro-2′-(trifluoromethoxy)-[1,1′-biphenyl]-4-yl)ureido)methyl)pyridin-3-yl)propanoic acid] | 500 to 5000 nM |  |
| CCS(=O)(=O)c1ccc(CNC(=O)Nc2cc(Cl)c(-c3ccccc3OC(F)(F)F)c(Cl)c2)nc1 [Example 1-11, 1-(2,6-dichloro-2′-(trifluoromethoxy)-[1,1′-biphenyl]-4-yl)-3-((5-(ethylsulfonyl)pyridine-2-yl)methyl)urea] | < 500 nM |  |
| CC(C(=O)O)c1ccc(CNC(=O)Nc2cc(Cl)c(-c3ccccc3OC(F)(F)F)c(Cl)c2)cc1 (stereo not shown) [Example 1-24, 2-(4-((3-(2,6-dichloro-2′-(trifluoromethoxy)-[1,1′-biphenyl]-4-yl)ureido)methyl)phenyl)propanoic acid] | 500 to 5000 nM |  |
| Cc1cc(CC(=O)O)ccc1CNC(=O)Nc1cc(Cl)c(-c2ccccc2OC(F)(F)F)c(Cl)c1 [Example 1-34, 3-(4-((3-(2,6-dichloro-2′-(trifluoromethoxy)-[1,1′-biphenyl]-4-yl)ureido)methyl)-3-methylphenyl)acetic acid] | < 500 nM |  |
| O=C(O)COc1ccc(CNC(=O)Nc2cc(Cl)c(-c3ccccc3OC(F)(F)F)c(Cl)c2)cc1 [Example 1-26, 2-(4-((3-(2,6-dichloro-2′-(trifluoromethoxy)-[1,1′-biphenyl]-4-yl)ureido)methyl)phenoxy)acetic acid] |  | 0 to 40% |

Further lines, with some results ahead:

| IC50 [2] | Compound | inhibition at 0.3 µM [1] |
| --- | --- | --- |
| < 500 nM | Cc1cc(NC(=O)NCc2ccc(CC(=O)O)cc2)cc(Cl)c1-c1ccccc1OC(F)(F)F [Example 1-17, 2-(4-((3-(2-chloro-6-methyl-2′-(trifluoromethoxy)-[1,1′-biphenyl]-4-yl)ureido)methyl)phenyl)acetic acid] | 70 to 100% |
| < 500 nM | NS(=O)(=O)c1ccc(CNC(=O)Nc2cc(Cl)c(-c3ccccc3OC(F)(F)F)c(Cl)c2)cc1 [Example 1-6, 4-((3-(2,6-dichloro-2′-(trifluoromethoxy)-[1,1′-biphenyl]-4-yl)ureido)methyl)benzenesulfonamide] | 40 to 70% |
| < 500 nM | CNS(=O)(=O)c1ccc(CNC(=O)Nc2cc(Cl)c(-c3ccccc3OC(F)(F)F)c(Cl)c2)cc1 [Example 1-5, 4-((3-(2,6-dichloro-2′-(trifluoromethoxy)-[1,1′-biphenyl]-4-yl)ureido)methyl)-N-methylbenzenesulfonamide] | 70 to 100% |
| < 500 nM | CCS(=N)(=O)c1ccc(CNC(=O)Nc2cc(Cl)c(-c3ccccc3OC(F)(F)F)c(Cl)c2)cc1 (stereo not shown) [Example 1-9, 1-(2,6-dichloro-2′-(trifluoromethoxv)-[1,1′-biphenyl]-4-yl)-3-(4-(ethylsulfonimidoyl)benzyl)urea] |  |
| < 500 nM | Cc1cc(NC(=O)NCc2ccc(CC(=O)O)cc2)cc(C)c1-c1ccccc1OC(F)F [Example 1-21, 2-(4-((3-(2′-(difluoromethoxy)-2,6-dimethyl-[1,1′-biphenyl]-4-yl)ureido)methyl)phenyl)acetic acid] | 0 to 40% |
| < 500 nM | N#Cc1cc(NC(=O)NCc2ccc(CC(=O)O)cc2)cc(Cl)c1-c1ccccc1OC(F)(F)F [Example 1-16, 2-(4-((3-(2-chloro-6-cyano-2′-(trifluoromethoxy)-[1,1′-biphenyl]-4-yl)ureido)methyl)phenyl)acetic acid] | 0 to 40% |
| < 500 nM | O=C(NCc1ccc(C(O)C(=O)O)cc1)Nc1cc(Cl)c(-c2ccccc2OC(F)(F)F)c(Cl)c1 (stereo not shown) [Example 1-37, 2-(4-((3-(2,6-dichloro-2′-(trifluoromethoxy)-[1,1′-biphenyl]-4-yl)ureido)methyl)phenyl)-2-hydroxyacetic acid] |  |
| < 500 nM | O=C(NCc1ccc(C(F)C(=O)O)cc1)Nc1cc(Cl)c(-c2ccccc2OC(F)(F)F)c(Cl)c1 (stereo not shown) [Example 1-38, 2-(4-((3-(2,6-dichloro-2′-(trifluoromethoxy)-[1,1′-biphenyl]-4-yl)ureido)methyl)phenyl)-2-fluoroacetic acid] |  |
| < 500 nM | CS(=O)(=O)c1ccc(CNC(=O)Nc2cc(Cl)c(-c3ccccc3OC(F)(F)F)c(Cl)c2)nc1 [Example 1-12, 1-(2,6-dichloro-2′-(trifluoromethoxy)-[1,1′-biphenyl]-4-yl)-3-((5-(methylsulfonyl)pyridine-2-yl)methyl)urea] |  |
